Data on five compounds can be found in the supplement of paper PMC10307832.

The test system of one experiment is EMC-BAC-2. The experiment in a line: relative viability (nuclei count vs DMSO), 5 days (fraction); higher = more cells survive. Conditions: first compound 0.08 µM. In outline:
(§1)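 Cells from lung cancer lines were seeded into 1536-well plates and, one day later, dosed by pin tool. Treatments were either a single drug or a fixed dose of an anchor drug with five library-drug doses (not always all listed) in √10 steps. After 5 days, nuclei were stained in a one-step fixation (final 0.05% Triton X-100, 1% formaldehyde, 1 ug/ml Hoechst) and counted on 4× images, and relative viability is the treated-to-vehicle nuclei ratio, as the median of duplicate plates.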
Consider `Oc1nc(-c2ccc(C(F)(F)F)cc2)nc2c1CSCC2` [XAV939] + O=C(CCCCCCC(=O)Nc1ccccc1)NO [Vorinostat] (partner 1 µM), for which the relative viability came out at 0.175.
Turning to `C=C1C(=O)O[C@@H](CCCCCCCC)[C@@H]1C(=O)O` [C-75] + Nc1nc2[nH]cc(CCc3ccc(C(=O)N[C@@H](CCC(=O)O)C(=O)O)cc3)c2c(=O)[nH]1 [Pemetrexed] (partner 0.2 µM), the relative viability turned out to be 0.438.
Compound `Oc1nc(-c2ccc(C(F)(F)F)cc2)nc2c1CSCC2` [XAV939] + O=C(c1cc(Cc2n[nH]c(=O)c3ccccc23)ccc1F)N1CCN(C(=O)C2CC2)CC1 [Olaparib] (partner 8 µM) had a relative viability of 0.533.
In turn, `Oc1nc(-c2ccc(C(F)(F)F)cc2)nc2c1CSCC2` [XAV939] + CC(=O)c1c(C)c2cnc(Nc3ccc(N4CCNCC4)cn3)nc2n(C2CCCC2)c1=O [Palbociclib] (partner 0.5 µM) returned a relative viability of 0.555.
In turn, `C=C1C(=O)O[C@@H](CCCCCCCC)[C@@H]1C(=O)O` [C-75] + CC(=O)c1c(C)c2cnc(Nc3ccc(N4CCNCC4)cn3)nc2n(C2CCCC2)c1=O [Palbociclib] (partner 0.5 µM) came in with a relative viability of 0.522.

The experiment is the same for the next values; noted with them: first compound 0.253 µM.
On to `Oc1nc(-c2ccc(C(F)(F)F)cc2)nc2c1CSCC2` [XAV939] + O=C(CCCCCCC(=O)Nc1ccccc1)NO [Vorinostat] (partner 1 µM), for which the relative viability was found to be 0.447.
`C=C1C(=O)O[C@@H](CCCCCCCC)[C@@H]1C(=O)O` [C-75] + Nc1nc2[nH]cc(CCc3ccc(C(=O)N[C@@H](CCC(=O)O)C(=O)O)cc3)c2c(=O)[nH]1 [Pemetrexed] (partner 0.2 µM) showed a relative viability of 0.432.
On the same count and under the same terms, for `Oc1nc(-c2ccc(C(F)(F)F)cc2)nc2c1CSCC2` [XAV939] + O=C(c1cc(Cc2n[nH]c(=O)c3ccccc23)ccc1F)N1CCN(C(=O)C2CC2)CC1 [Olaparib] (partner 8 µM) the value was 0.477; for `Oc1nc(-c2ccc(C(F)(F)F)cc2)nc2c1CSCC2` [XAV939] + CC(=O)c1c(C)c2cnc(Nc3ccc(N4CCNCC4)cn3)nc2n(C2CCCC2)c1=O [Palbociclib] (partner 0.5 µM), 0.491.
For `C=C1C(=O)O[C@@H](CCCCCCCC)[C@@H]1C(=O)O` [C-75] + CC(=O)c1c(C)c2cnc(Nc3ccc(N4CCNCC4)cn3)nc2n(C2CCCC2)c1=O [Palbociclib] (partner 0.5 µM), the relative viability was determined as 0.505.

Still in this experiment, the particulars now being: first compound 0.8 µM.
The compound `Oc1nc(-c2ccc(C(F)(F)F)cc2)nc2c1CSCC2` [XAV939] + O=C(CCCCCCC(=O)Nc1ccccc1)NO [Vorinostat] (partner 1 µM) displayed a relative viability of 0.379.
On to `C=C1C(=O)O[C@@H](CCCCCCCC)[C@@H]1C(=O)O` [C-75] + Nc1nc2[nH]cc(CCc3ccc(C(=O)N[C@@H](CCC(=O)O)C(=O)O)cc3)c2c(=O)[nH]1 [Pemetrexed] (partner 0.2 µM), for which the relative viability came to 0.469.
In turn, `Oc1nc(-c2ccc(C(F)(F)F)cc2)nc2c1CSCC2` [XAV939] + O=C(c1cc(Cc2n[nH]c(=O)c3ccccc23)ccc1F)N1CCN(C(=O)C2CC2)CC1 [Olaparib] (partner 8 µM) yielded a relative viability of 0.478.
On the same count and under the same terms, under `Oc1nc(-c2ccc(C(F)(F)F)cc2)nc2c1CSCC2` [XAV939] + CC(=O)c1c(C)c2cnc(Nc3ccc(N4CCNCC4)cn3)nc2n(C2CCCC2)c1=O [Palbociclib] (partner 0.5 µM) stands 0.478.
For `C=C1C(=O)O[C@@H](CCCCCCCC)[C@@H]1C(=O)O` [C-75] + CC(=O)c1c(C)c2cnc(Nc3ccc(N4CCNCC4)cn3)nc2n(C2CCCC2)c1=O [Palbociclib] (partner 0.5 µM), the relative viability amounted to 0.515.

The same experiment, now with this note: first compound 2.53 µM.
Regarding `Oc1nc(-c2ccc(C(F)(F)F)cc2)nc2c1CSCC2` [XAV939] + O=C(CCCCCCC(=O)Nc1ccccc1)NO [Vorinostat] (partner 1 µM), the relative viability worked out at 0.289.
In the case of `C=C1C(=O)O[C@@H](CCCCCCCC)[C@@H]1C(=O)O` [C-75] + Nc1nc2[nH]cc(CCc3ccc(C(=O)N[C@@H](CCC(=O)O)C(=O)O)cc3)c2c(=O)[nH]1 [Pemetrexed] (partner 0.2 µM), the relative viability came to 0.328.
On to `Oc1nc(-c2ccc(C(F)(F)F)cc2)nc2c1CSCC2` [XAV939] + O=C(c1cc(Cc2n[nH]c(=O)c3ccccc23)ccc1F)N1CCN(C(=O)C2CC2)CC1 [Olaparib] (partner 8 µM), for which the relative viability is 0.301.
Consider `Oc1nc(-c2ccc(C(F)(F)F)cc2)nc2c1CSCC2` [XAV939] + CC(=O)c1c(C)c2cnc(Nc3ccc(N4CCNCC4)cn3)nc2n(C2CCCC2)c1=O [Palbociclib] (partner 0.5 µM), for which the relative viability came to 0.338.
Take `C=C1C(=O)O[C@@H](CCCCCCCC)[C@@H]1C(=O)O` [C-75] + CC(=O)c1c(C)c2cnc(Nc3ccc(N4CCNCC4)cn3)nc2n(C2CCCC2)c1=O [Palbociclib] (partner 0.5 µM): the relative viability is 0.438.

Staying with this experiment, now noted: first compound 8 µM.
`C=C1C(=O)O[C@@H](CCCCCCCC)[C@@H]1C(=O)O` [C-75] + Nc1nc2[nH]cc(CCc3ccc(C(=O)N[C@@H](CCC(=O)O)C(=O)O)cc3)c2c(=O)[nH]1 [Pemetrexed] (partner 0.2 µM) yielded a relative viability of 0.426.
`C=C1C(=O)O[C@@H](CCCCCCCC)[C@@H]1C(=O)O` [C-75] + CC(=O)c1c(C)c2cnc(Nc3ccc(N4CCNCC4)cn3)nc2n(C2CCCC2)c1=O [Palbociclib] (partner 0.5 µM) registered a relative viability of 0.521.

Another experiment concerns LCLC-103H. The experiment is described as above. Conditions: first compound 0.08 µM. In outline:
as §1
`Oc1nc(-c2ccc(C(F)(F)F)cc2)nc2c1CSCC2` [XAV939] + O=C(CCCCCCC(=O)Nc1ccccc1)NO [Vorinostat] (partner 1 µM) came in with a relative viability of 0.874.
On to `C=C1C(=O)O[C@@H](CCCCCCCC)[C@@H]1C(=O)O` [C-75] + Nc1nc2[nH]cc(CCc3ccc(C(=O)N[C@@H](CCC(=O)O)C(=O)O)cc3)c2c(=O)[nH]1 [Pemetrexed] (partner 0.2 µM), for which the relative viability was determined as 0.464.
`Oc1nc(-c2ccc(C(F)(F)F)cc2)nc2c1CSCC2` [XAV939] + O=C(c1cc(Cc2n[nH]c(=O)c3ccccc23)ccc1F)N1CCN(C(=O)C2CC2)CC1 [Olaparib] (partner 8 µM) had a relative viability of 0.833.
Same read-out and setting: for `Oc1nc(-c2ccc(C(F)(F)F)cc2)nc2c1CSCC2` [XAV939] + CC(=O)c1c(C)c2cnc(Nc3ccc(N4CCNCC4)cn3)nc2n(C2CCCC2)c1=O [Palbociclib] (partner 0.5 µM) the value was 0.53; for `C=C1C(=O)O[C@@H](CCCCCCCC)[C@@H]1C(=O)O` [C-75] + CC(=O)c1c(C)c2cnc(Nc3ccc(N4CCNCC4)cn3)nc2n(C2CCCC2)c1=O [Palbociclib] (partner 0.5 µM), 0.447.

The same experiment, now with this note: first compound 0.253 µM.
Compound `Oc1nc(-c2ccc(C(F)(F)F)cc2)nc2c1CSCC2` [XAV939] + O=C(CCCCCCC(=O)Nc1ccccc1)NO [Vorinostat] (partner 1 µM) came in with a relative viability of 0.698.
As for `C=C1C(=O)O[C@@H](CCCCCCCC)[C@@H]1C(=O)O` [C-75] + Nc1nc2[nH]cc(CCc3ccc(C(=O)N[C@@H](CCC(=O)O)C(=O)O)cc3)c2c(=O)[nH]1 [Pemetrexed] (partner 0.2 µM), the relative viability is 0.428.
On to `Oc1nc(-c2ccc(C(F)(F)F)cc2)nc2c1CSCC2` [XAV939] + O=C(c1cc(Cc2n[nH]c(=O)c3ccccc23)ccc1F)N1CCN(C(=O)C2CC2)CC1 [Olaparib] (partner 8 µM), for which the relative viability was found to be 0.691.
